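Cells were grown in 96-well plates and exposed to each compound for 48 hours at five concentrations; endpoints were interpolated linearly between bracketing concentrations, or set to the highest concentration if not reached. TGI is the concentration that stops growth completely.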
Assays:
Experiment in all cases: growth of human tumour cells (NCI), 48 h
[1] = test system: MOLT-4 leukemia
[2] = test system: NCI/ADR-RES ovarian
[3] = test system: M14 melanoma
[4] = test system: HCT-15 colon
[5] = test system: LOX IMVI melanoma
[6] = test system: HL-60(TB) leukemia
[7] = test system: T-47D breast
[8] = test system: HT29 colon
[9] = test system: OVCAR-8 ovarian
[10] = test system: A549 NSCLC
[11] = test system: RPMI-8226 leukemia
[12] = test system: 786-0 renal
[13] = test system: MCF7 breast
[14] = test system: COLO 205 colon
[15] = test system: SF-295 CNS
[16] = test system: MALME-3M melanoma
[17] = test system: OVCAR-4 ovarian
[18] = test system: ACHN renal
[19] = test system: EKVX NSCLC
[20] = test system: SNB-19 CNS
[21] = test system: IGROV1 ovarian
[22] = test system: SK-OV-3 ovarian
[23] = test system: MDA-MB-435
[24] = test system: NCI-H460 lung
[25] = test system: TK-10 renal
[26] = test system: SK-MEL-28 melanoma
[27] = test system: OVCAR-3 ovarian
[28] = test system: NCI-H23 lung
[29] = test system: SR leukemia
[30] = test system: U251 CNS
[31] = test system: DU-145 prostate
[32] = test system: NCI-H522 lung
[33] = test system: CAKI-1 renal
[34] = test system: PC-3 prostate
[35] = test system: MDA-N
[36] = test system: SK-MEL-5 melanoma
[37] = test system: KM12 colon
[38] = test system: UACC-257 melanoma
[39] = test system: MDA-MB-231 breast
[40] = test system: SN12C renal
[41] = test system: CCRF-CEM leukemia
[42] = test system: HOP-62 NSCLC
[43] = test system: SF-268 CNS
[44] = test system: UO-31 renal
[45] = test system: OVCAR-5 ovarian
[46] = test system: HCT-116 colon
[47] = test system: HS 578T breast
[48] = test system: BT-549 breast
[49] = test system: UACC-62 melanoma
[50] = test system: NCI-H226 lung
[51] = test system: HOP-92 NSCLC
[52] = test system: RXF 393 renal
[53] = test system: SK-MEL-2 melanoma
[54] = test system: A498 renal
[55] = test system: SNB-75 CNS
[56] = test system: K-562 leukemia
[57] = test system: SW-620 colon

Structure (SMILES): OC(c1ccccc1)(c1ccccc1)c1nccc2ccccc12
- TGI [1]: 59.4 µM
- TGI [2]: > 100 µM
- TGI [3]: 49.9 µM
- TGI [4]: > 100 µM
- TGI [5]: 44.3 µM
- TGI [6]: > 100 µM
- TGI [7]: > 100 µM
- TGI [8]: > 100 µM
- TGI [9]: > 100 µM
- TGI [10]: > 100 µM
- TGI [11]: > 100 µM
- TGI [12]: > 100 µM
- TGI [13]: > 100 µM
- TGI [14]: > 100 µM
- TGI [15]: 36.2 µM
- TGI [16]: 68 µM
- TGI [17]: > 100 µM
- TGI [18]: > 100 µM
- TGI [19]: 83.5 µM
- TGI [20]: > 100 µM
- TGI [21]: > 100 µM
- TGI [22]: 70.2 µM
- TGI [23]: > 100 µM
- TGI [24]: 43.7 µM
- TGI [25]: > 100 µM
- TGI [26]: > 100 µM
- TGI [27]: 52.5 µM
- TGI [28]: 89.5 µM
- TGI [29]: > 100 µM
- TGI [30]: > 100 µM
- TGI [31]: > 100 µM
- TGI [32]: 40.8 µM
- TGI [33]: > 100 µM
- TGI [34]: > 100 µM
- TGI [35]: > 100 µM
- TGI [36]: 27 µM
- TGI [37]: > 100 µM
- TGI [38]: > 100 µM
- TGI [39]: > 100 µM
- TGI [40]: > 100 µM
- TGI [41]: 95.5 µM
- TGI [42]: 43.2 µM
- TGI [43]: > 100 µM
- TGI [44]: > 100 µM
- TGI [45]: > 100 µM
- TGI [46]: 97 µM
- TGI [47]: > 100 µM
- TGI [48]: 37.2 µM
- TGI [49]: > 100 µM

Structure (SMILES): COc1ccc(C2NC(=S)Nc3c2c(=O)oc2c3ccc3ccccc32)cc1 (stereo unspecified)
- TGI [1]: > 100 µM
- TGI [2]: > 100 µM
- TGI [3]: > 100 µM
- TGI [50]: > 100 µM
- TGI [4]: > 100 µM
- TGI [5]: > 100 µM
- TGI [6]: > 100 µM
- TGI [7]: > 100 µM
- TGI [51]: > 100 µM
- TGI [8]: > 100 µM
- TGI [9]: > 100 µM
- TGI [10]: > 100 µM
- TGI [11]: > 100 µM
- TGI [12]: > 100 µM
- TGI [13]: > 100 µM
- TGI [14]: > 100 µM
- TGI [52]: > 100 µM
- TGI [15]: > 100 µM
- TGI [16]: > 100 µM
- TGI [17]: > 100 µM
- TGI [18]: > 100 µM
- TGI [19]: > 100 µM
- TGI [53]: > 100 µM
- TGI [20]: > 100 µM
- TGI [21]: > 100 µM
- TGI [54]: > 100 µM
- TGI [22]: > 100 µM
- TGI [23]: > 100 µM
- TGI [24]: > 100 µM
- TGI [25]: > 100 µM
- TGI [26]: > 100 µM
- TGI [27]: > 100 µM
- TGI [28]: > 100 µM
- TGI [29]: > 100 µM
- TGI [30]: > 100 µM
- TGI [31]: > 100 µM
- TGI [32]: > 100 µM
- TGI [55]: 96.4 µM
- TGI [33]: > 100 µM
- TGI [34]: > 100 µM
- TGI [35]: > 100 µM
- TGI [36]: > 100 µM
- TGI [37]: > 100 µM
- TGI [38]: > 100 µM
- TGI [39]: > 100 µM
- TGI [56]: > 100 µM
- TGI [40]: > 100 µM
- TGI [41]: > 100 µM
- TGI [42]: > 100 µM
- TGI [43]: > 100 µM
- TGI [44]: > 100 µM
- TGI [45]: > 100 µM
- TGI [46]: > 100 µM
- TGI [57]: > 100 µM
- TGI [47]: > 100 µM
- TGI [48]: > 100 µM
- TGI [49]: > 100 µM

Reference: PubChem BioAssay (NCI)
